Assay results from ChEMBL document CHEMBL1201862, “PubChem BioAssay data set” (2004).
Calls of active or inactive are those of the source.

Assays:
Large T antigen = Large T antigen (Simian virus 40, UniProt P03070); format: functional, Betapolyomavirus macacae;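 also: Confirmatory-stage PubChem screen for compounds that inhibit SV40 T antigen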
[1] = target: Induced myeloid leukemia cell differentiation protein Mcl-1 (Homo sapiens, UniProt Q07820); format: functional
[2] = target: Voltage-dependent T-type calcium channel subunit alpha-1H (Homo sapiens, UniProt O95180); format: functional;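 also: channel activity triggered by adding a high calcium stimulation buffer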
[3] = target: DNA dC->dU-editing enzyme APOBEC-3G (Homo sapiens, UniProt Q9HC16); test: Dose Response confirmation of small molecule APOBEC3G DNA Deaminase Inhibitors via a fluorescence-based single-stranded DNA deaminase assay. [Related pubchem assays (depositor defined):AID493012, AID493028]; format: functional
Aminopeptidase N = target: T1, Aminopeptidase N (Plasmodium falciparum FcB1/Columbia, UniProt O96935); test: P. falciparum M1AAP inhibitors, biochemical, fluorogenic H-Leu-NHMec substrate, 1536-well (AID 1445); set-up: species or system Plasmodium falciparum 3D7, 3D7
T1 sequence (O96935 whole entry): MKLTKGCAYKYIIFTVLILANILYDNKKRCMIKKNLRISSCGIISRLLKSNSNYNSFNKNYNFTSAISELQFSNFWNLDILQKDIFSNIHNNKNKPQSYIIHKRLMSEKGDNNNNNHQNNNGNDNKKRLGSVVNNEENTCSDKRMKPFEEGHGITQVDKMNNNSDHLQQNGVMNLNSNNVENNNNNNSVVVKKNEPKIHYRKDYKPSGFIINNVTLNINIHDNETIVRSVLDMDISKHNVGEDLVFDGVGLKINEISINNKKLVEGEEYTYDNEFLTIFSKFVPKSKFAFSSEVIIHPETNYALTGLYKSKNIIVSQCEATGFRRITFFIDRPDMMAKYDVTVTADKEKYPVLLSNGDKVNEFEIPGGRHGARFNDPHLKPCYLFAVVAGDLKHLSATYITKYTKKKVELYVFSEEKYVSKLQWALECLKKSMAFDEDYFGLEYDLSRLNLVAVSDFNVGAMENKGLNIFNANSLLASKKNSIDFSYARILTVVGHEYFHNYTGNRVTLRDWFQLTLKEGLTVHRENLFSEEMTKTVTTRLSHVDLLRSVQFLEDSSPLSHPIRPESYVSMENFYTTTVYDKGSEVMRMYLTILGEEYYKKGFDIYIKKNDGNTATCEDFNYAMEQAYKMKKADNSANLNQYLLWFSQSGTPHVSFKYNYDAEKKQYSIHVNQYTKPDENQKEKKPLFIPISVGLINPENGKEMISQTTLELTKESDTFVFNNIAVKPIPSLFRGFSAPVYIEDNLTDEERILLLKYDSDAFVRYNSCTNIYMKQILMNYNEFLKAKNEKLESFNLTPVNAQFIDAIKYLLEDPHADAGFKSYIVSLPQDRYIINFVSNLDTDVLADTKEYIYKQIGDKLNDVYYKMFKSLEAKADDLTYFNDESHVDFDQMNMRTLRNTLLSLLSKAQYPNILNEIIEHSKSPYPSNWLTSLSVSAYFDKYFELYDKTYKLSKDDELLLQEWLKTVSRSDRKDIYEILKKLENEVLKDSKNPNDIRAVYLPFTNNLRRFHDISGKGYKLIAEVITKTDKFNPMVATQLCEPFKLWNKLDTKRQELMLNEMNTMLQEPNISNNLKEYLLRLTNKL

cells [4] = format: functional, cell-based
[5] = target: T2, Trace amine-associated receptor 1 (Homo sapiens, UniProt Q96RJ0); test: Fluorescence-based cell-based high throughput dose response assay to identify agonists of the human trace amine associated receptor 1 (TAAR1).; format: functional
T2 sequence (Q96RJ0 whole entry): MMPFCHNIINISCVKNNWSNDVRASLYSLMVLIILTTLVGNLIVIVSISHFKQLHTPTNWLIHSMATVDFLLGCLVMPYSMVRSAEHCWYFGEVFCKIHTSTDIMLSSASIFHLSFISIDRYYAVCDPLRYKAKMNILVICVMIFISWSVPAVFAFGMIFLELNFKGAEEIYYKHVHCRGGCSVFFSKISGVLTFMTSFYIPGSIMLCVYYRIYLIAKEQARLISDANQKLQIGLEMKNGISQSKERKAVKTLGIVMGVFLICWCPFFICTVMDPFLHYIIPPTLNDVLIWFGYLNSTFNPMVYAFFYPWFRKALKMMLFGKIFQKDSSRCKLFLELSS

[6] = target: T2, Trace amine-associated receptor 1; test: Counterscreen for agonists of the human trace amine associated receptor 1 (hTAAR1): Fluorescence-based cell-based high throughput dose response assay to identify hTAAR1 agonist that also desensitize TAAR1 receptor response.; format: functional
cells [7] = format: functional, cell-based; remark: listed apart in the source
Estrogen receptor = target: T3, Estrogen receptor (Homo sapiens, UniProt P03372);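 also: potency for inhibiting coactivator peptide recruitment to the receptor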
T3 sequence (P03372 whole entry): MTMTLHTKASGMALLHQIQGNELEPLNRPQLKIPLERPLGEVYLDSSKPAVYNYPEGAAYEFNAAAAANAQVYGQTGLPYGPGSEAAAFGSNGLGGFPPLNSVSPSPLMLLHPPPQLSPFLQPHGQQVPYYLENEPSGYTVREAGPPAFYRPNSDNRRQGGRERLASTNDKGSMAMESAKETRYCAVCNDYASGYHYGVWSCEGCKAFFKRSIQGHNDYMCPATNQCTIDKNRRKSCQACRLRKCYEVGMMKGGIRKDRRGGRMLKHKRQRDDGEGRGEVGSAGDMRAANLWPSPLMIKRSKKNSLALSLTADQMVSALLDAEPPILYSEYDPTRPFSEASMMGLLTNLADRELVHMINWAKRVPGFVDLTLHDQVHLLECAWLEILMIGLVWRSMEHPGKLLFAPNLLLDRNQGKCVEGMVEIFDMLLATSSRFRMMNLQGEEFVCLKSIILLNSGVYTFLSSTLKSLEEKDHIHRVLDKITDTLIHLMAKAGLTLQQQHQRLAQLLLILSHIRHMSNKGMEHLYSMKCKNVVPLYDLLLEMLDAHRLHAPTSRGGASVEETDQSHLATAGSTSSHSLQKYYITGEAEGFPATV

[8] = NIH-3T3 fibroblast cytotoxicity, dose response, cytotoxicity control, cell-based, fluorescence, Alamar Blue, secondary assay (AID 2327); format: functional;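 also: NIH-3T3 mouse fibroblasts cultured with fluconazole at 8 µg/mL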
[9] = HEp-2 cell cytotoxicity, dose response, cytotoxicity control for RSV inhibitor project, HTS (AID 2410); format: functional; settings: human respiratory syncytial virus
[10] = C. albicans growth with fluconazole, confirmation, fluorescence, retest (AID 2467); format: functional, cell-based
cells [11] = test: cells
CAAX prenyl protease 2 = target: T4, CAAX prenyl protease 2 (Saccharomyces cerevisiae S288c, UniProt Q03530); format: biochemical
T4 sequence (Q03530 whole entry): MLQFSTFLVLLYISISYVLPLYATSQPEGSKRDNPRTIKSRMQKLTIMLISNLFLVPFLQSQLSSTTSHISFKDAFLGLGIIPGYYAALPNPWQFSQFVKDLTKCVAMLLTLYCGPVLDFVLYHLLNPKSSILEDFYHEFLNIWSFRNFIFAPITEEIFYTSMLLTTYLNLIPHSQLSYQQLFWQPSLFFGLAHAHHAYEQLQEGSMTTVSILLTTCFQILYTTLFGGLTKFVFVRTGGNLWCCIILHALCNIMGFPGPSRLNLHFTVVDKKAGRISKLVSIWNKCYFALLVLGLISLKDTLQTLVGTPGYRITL

Fatty acid synthase [12] = target: T5, Fatty acid synthase (Homo sapiens, UniProt P49327); test: FAS thioesterase domain inhibitors, dose response, biochemical, endpoint fluorescence intensity, uHTS hits (AID 624327); format: functional;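 also: fluorescence from hydrolysis of an O-methyl fluorescein acyl ester substrate by the enzyme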
Fatty acid synthase [13] = target: T5, Fatty acid synthase; test: FAS thioesterase domain inhibitors, dose response, biochemical, kinetic fluorescence intensity (AID 624326); format: functional;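 also: rate of fluorescence rise from hydrolysis of a fluorogenic O-methyl fluorescein ester substrate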
Cytochrome P450 2C19 = Cytochrome P450 2C19 (Homo sapiens, UniProt P33261); test: qHTS Assay for Inhibitors and Substrates of Cytochrome P450 2C19. [Related pubchem assays: 410 ]; format: ADME; settings: read-out: Potency
[14] = target: T6, Acyl-homoserine lactone acylase PvdQ (Pseudomonas aeruginosa (strain LESB58), UniProt Q9I194); test: P. aeruginosa PvdQ acylase inhibitors, dose response, biochemical, fluorescence, plate reader and imaging, cherry-picks (AID 493231)
T6 sequence (Q9I194 whole entry): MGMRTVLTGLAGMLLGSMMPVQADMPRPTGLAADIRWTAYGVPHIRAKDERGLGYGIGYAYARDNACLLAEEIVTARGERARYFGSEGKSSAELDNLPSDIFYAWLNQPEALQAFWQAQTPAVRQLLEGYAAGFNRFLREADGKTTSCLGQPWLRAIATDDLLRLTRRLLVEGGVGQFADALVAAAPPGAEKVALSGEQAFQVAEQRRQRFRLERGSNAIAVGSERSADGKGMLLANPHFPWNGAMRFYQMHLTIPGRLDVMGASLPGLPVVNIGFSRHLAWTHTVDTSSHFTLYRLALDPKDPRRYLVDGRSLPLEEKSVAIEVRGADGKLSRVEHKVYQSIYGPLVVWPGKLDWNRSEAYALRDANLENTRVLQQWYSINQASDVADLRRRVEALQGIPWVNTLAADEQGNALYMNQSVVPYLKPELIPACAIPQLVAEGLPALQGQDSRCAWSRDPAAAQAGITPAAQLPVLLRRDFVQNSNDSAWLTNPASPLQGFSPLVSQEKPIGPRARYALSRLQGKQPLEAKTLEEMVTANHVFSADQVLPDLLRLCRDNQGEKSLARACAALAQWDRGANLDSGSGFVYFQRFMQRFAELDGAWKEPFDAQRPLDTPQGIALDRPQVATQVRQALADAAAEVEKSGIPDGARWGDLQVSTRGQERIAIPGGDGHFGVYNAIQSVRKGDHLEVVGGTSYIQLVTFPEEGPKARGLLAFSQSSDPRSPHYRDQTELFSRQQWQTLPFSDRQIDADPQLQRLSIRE

Beta-galactosidase = Beta-galactosidase (Escherichia coli, UniProt Q8VNN2); test: beta-galactosidase enzyme inhibitors and activators, dose response, artefact control for CCR6 antagonist project, biochemical, E. coli enzyme, set 3 (AID 504712); format: functional
Beta-galactosidase, sequence (Q8VNN2 whole entry): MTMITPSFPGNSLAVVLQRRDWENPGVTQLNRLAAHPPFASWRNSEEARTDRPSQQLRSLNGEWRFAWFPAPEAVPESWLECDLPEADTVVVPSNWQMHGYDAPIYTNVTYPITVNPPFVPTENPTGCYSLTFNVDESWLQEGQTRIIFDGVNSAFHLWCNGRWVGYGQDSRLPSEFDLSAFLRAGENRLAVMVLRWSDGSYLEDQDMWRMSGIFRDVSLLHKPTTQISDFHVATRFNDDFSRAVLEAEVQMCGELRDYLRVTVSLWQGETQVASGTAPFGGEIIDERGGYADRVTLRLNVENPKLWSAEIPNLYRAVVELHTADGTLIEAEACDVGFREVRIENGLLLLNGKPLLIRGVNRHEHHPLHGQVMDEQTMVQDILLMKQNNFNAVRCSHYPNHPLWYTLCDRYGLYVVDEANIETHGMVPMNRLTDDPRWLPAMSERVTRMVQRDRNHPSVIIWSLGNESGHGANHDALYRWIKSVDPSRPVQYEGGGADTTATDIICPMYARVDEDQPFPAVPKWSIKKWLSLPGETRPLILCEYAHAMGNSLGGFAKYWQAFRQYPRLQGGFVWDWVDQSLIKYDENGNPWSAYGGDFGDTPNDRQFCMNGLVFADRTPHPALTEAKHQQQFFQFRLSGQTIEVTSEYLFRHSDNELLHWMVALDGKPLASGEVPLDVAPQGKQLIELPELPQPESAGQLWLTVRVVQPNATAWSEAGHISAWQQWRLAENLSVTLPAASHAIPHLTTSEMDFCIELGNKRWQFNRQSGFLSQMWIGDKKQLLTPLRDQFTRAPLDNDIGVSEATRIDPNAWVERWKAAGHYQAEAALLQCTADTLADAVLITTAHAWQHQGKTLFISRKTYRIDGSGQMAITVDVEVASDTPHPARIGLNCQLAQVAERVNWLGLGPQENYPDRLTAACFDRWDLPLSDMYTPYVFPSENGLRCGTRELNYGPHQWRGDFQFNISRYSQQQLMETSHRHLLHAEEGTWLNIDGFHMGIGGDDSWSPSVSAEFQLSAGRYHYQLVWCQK

Induced myeloid leukemia cell differentiation protein Mcl-1, sequence (Q07820 whole entry): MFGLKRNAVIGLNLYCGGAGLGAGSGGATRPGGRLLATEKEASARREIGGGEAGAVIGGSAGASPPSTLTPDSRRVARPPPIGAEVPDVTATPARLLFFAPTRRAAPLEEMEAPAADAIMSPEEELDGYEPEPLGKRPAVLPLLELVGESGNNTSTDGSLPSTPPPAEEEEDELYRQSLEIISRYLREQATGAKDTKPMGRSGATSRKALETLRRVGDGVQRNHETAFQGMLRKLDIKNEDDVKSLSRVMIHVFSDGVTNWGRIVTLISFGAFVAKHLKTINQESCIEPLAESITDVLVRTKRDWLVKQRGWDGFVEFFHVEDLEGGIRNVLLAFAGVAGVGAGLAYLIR
Voltage-dependent T-type calcium channel subunit alpha-1H, sequence (O95180 whole entry): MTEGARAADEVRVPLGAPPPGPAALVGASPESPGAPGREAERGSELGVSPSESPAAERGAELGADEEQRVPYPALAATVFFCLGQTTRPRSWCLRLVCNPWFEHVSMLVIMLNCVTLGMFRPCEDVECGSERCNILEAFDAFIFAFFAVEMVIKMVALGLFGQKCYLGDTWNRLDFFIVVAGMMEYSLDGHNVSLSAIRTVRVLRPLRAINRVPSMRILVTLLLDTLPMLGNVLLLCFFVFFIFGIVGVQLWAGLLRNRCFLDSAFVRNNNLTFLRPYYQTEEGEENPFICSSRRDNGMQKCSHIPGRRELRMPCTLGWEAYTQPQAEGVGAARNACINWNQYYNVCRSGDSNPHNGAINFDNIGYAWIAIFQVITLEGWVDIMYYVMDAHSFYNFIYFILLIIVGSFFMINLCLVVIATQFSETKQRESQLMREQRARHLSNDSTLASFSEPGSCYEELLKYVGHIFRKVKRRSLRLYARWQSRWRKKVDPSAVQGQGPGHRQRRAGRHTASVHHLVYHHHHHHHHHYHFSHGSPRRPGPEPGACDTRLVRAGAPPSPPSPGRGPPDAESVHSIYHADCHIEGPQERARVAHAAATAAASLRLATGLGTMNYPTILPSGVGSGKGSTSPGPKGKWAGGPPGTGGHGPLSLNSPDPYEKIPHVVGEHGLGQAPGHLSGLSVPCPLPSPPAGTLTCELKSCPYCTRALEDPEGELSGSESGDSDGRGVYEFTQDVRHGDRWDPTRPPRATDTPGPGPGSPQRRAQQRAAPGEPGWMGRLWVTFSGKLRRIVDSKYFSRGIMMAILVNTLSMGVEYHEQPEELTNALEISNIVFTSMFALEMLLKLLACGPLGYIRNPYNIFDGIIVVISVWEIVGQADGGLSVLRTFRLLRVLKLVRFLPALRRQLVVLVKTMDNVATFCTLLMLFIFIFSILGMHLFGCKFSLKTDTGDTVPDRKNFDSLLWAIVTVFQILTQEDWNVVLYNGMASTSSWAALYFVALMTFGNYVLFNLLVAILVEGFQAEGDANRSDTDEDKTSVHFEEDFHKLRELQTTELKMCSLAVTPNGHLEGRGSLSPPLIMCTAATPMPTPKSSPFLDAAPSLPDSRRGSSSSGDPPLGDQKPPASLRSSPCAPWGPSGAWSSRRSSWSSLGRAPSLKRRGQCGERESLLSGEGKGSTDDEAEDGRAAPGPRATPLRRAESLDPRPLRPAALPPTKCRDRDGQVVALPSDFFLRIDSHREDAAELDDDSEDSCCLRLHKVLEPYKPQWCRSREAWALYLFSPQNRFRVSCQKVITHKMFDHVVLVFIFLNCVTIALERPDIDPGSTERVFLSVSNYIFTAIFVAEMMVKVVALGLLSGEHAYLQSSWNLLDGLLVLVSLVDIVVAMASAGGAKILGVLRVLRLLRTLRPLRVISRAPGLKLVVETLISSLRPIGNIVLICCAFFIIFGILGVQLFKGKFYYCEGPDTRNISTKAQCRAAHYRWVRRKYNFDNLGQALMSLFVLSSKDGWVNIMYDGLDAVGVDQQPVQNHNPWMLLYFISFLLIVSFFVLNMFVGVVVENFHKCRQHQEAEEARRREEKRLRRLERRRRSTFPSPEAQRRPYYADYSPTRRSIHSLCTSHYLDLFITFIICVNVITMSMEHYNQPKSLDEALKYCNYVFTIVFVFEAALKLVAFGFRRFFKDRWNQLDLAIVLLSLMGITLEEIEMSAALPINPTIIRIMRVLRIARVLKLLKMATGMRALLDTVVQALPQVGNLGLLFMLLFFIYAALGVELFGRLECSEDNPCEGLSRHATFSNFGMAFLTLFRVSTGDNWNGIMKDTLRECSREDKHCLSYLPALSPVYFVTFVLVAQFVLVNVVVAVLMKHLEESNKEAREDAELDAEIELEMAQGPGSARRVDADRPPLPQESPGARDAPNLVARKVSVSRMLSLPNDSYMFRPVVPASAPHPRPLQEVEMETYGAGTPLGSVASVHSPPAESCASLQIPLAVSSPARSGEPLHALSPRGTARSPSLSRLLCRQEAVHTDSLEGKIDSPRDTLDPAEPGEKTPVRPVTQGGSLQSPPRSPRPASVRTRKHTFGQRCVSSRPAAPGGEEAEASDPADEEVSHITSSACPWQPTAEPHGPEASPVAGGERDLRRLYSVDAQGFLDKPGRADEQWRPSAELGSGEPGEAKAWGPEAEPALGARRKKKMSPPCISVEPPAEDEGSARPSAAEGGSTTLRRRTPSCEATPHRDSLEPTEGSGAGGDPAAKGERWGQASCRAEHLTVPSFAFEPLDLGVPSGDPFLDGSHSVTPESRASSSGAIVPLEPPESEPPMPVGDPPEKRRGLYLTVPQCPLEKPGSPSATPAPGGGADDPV
DNA dC->dU-editing enzyme APOBEC-3G, sequence (Q9HC16 whole entry): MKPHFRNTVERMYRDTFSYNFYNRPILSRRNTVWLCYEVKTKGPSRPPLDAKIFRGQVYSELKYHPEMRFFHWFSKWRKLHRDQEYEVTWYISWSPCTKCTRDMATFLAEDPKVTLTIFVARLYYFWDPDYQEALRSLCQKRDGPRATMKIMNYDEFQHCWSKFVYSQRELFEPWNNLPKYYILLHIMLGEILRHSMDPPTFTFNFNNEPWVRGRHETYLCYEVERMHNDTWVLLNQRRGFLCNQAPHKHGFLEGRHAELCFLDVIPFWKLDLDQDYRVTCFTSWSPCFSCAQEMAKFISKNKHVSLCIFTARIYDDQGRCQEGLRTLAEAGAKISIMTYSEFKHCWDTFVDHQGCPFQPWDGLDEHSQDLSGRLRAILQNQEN
Large T antigen, sequence (P03070 whole entry): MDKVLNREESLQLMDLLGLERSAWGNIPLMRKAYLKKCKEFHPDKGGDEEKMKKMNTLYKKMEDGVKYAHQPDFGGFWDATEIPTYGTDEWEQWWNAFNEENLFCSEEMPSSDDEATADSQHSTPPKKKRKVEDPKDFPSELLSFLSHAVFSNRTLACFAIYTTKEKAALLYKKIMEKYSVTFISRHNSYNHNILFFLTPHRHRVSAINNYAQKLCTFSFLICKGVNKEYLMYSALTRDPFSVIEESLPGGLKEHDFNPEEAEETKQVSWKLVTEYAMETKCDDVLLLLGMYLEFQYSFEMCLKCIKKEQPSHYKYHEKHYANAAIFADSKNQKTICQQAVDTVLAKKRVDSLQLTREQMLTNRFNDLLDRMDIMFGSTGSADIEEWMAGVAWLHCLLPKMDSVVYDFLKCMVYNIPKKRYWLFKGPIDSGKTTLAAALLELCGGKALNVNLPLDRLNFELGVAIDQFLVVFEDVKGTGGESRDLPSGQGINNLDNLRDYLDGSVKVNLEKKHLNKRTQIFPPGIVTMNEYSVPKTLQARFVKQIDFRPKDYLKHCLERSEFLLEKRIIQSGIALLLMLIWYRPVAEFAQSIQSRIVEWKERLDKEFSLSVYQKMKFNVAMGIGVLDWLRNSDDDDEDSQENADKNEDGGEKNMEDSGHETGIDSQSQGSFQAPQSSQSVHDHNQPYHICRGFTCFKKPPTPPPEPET

COc1ccc(CN2C(=O)NC(=O)/C(=C/c3ccc([N+](=O)[O-])o3)C2=O)cc1
IC50 (Large T antigen): 71.7 µM (active)
IC50 [1]: 3.22 µM (active)

O=P(Nc1ccccc1Cl)(c1ccccc1)c1nc2c(s1)CCCC2 (stereo not drawn)
EC50 [2]: 5.95 µM (active)

CCN(CC)C(=O)CSc1nc2c(sc(=S)n2-c2ccccc2)c(=O)n1-c1ccc(OC)cc1OC
IC50 [3]: 51.9 µM (active)

O=C(NCc1ccc2c(c1)OCO2)C1CCN(S(=O)(=O)c2cccs2)CC1
IC50 (Aminopeptidase N): 26.7 µM (active)

COc1ccc(N2CCN(C(=O)CN(Cc3ccc(Cl)cc3)S(C)(=O)=O)CC2)cc1
EC50 [2]: 11.3 µM (active)

COC(=O)c1c(-c2ccc(C(C)(C)C)cc2)csc1NC(=O)C1C2CCC(O2)C1C(=O)O (stereo not drawn)
IC50 (Aminopeptidase N): 79.5 µM (active)

Cc1oc(-c2cccc(Cl)c2)nc1CN1CCC(C(=O)NCc2ccco2)CC1
EC50 [2]: 5.8 µM (active)

O=C(CNCCc1ccccc1)N1CCc2ccccc2C1
IC50 (cells [4]): > 29.9 µM (inactive)
EC50 [5]: 1.2 µM (active)
IC50 [6]: 5.52 µM (active)
EC50 (cells [7]): > 29.9 µM (inactive)

CCn1c(SCC(=O)c2ccc(CNC(C)=O)o2)nnc1-c1cccs1
IC50 (Estrogen receptor): 42.7 µM (not active)

CC(C)c1ccc2oc(-c3ccc(NC(=O)c4nc[nH]n4)cc3)nc2c1
EC50 [8]: > 160 µM (inactive)
CC50 [9]: > 50 µM (active)
EC50 [10]: 0.04 µM (active)
IC50 (cells [11]): 42.2 µM (active)

CC(=O)OC1CC(C)(C)N(OC(=O)c2ccc(N)cc2)C(C)(C)C1
IC50 (Estrogen receptor): 26.3 µM (active)

COc1ccc(OC)c(Cc2nnc(CCC(=O)N3CCN(C4CCCC4)CC3)o2)c1
AC50 (CAAX prenyl protease 2): 7.48 µM (active)

COc1ccc2cc3cc(C(=O)N4CCCCC4C)oc3nc2c1 (stereo not drawn)
CC50 [9]: 42.4 µM (active)
IC50 (Fatty acid synthase [12]): 2.81 µM (active)
IC50 (Fatty acid synthase [13]): 2.52 µM (active)
IC50 (cells [11]): 35.1 µM (active)

CNC(=S)Nc1sc2c(c1C(=O)OC)CCC2
IC50 [1]: 1.48 µM (active)

CC12CC3OS(=O)OC3CC3C4C(C(OCc5ccccc5)C31)C42 (stereo not drawn)
AC50 (Cytochrome P450 2C19): 0.251 µM (inconclusive)

CN1C(=O)/C(=C/c2cccc(Cl)c2)Sc2ccc(C(=O)N3CCOCC3)cc21
AC50 (CAAX prenyl protease 2): 5.96 µM (active)

O=C(O)CCc1ccc(-c2cccs2)n1CCc1ccccc1
IC50 (cells [4]): > 29.9 µM (inactive)
EC50 [5]: 0.62 µM (active)
IC50 [6]: 5.93 µM (active)
EC50 (cells [7]): > 29.9 µM (inactive)

O=C(CCC1COc2ccccc2O1)NCC1COc2ccccc2O1 (stereo not drawn)
EC50 [2]: 1.77 µM (active)

O=C(CN1CCC(NC(=O)c2ccccc2)CC1)NCc1ccccc1F
IC50 (Aminopeptidase N): 39.3 µM (active)

O=C(NC1CC1)c1cc2cc3ccccc3nc2s1
AC50 [14]: 45.7 µM (active)

CCOC(=O)c1c(NC(=O)CSc2nnc(CNC(=O)c3ccco3)n2C)sc2c1CCC2
IC50 (Estrogen receptor): > 50 µM (not active)

COCCN(C(=O)C(C)C)c1nnc(-c2cccc(C)c2)s1
CC50 [9]: > 50 µM (active)
IC50 (cells [11]): 37.4 µM (active)

Nc1cccc(C2=Nc3cccc4cccc(c34)N2)c1
IC50 [1]: 3 µM (active)

O=C(O)c1cccc(Nc2nc(-c3cccnc3)nc3ccccc23)c1
IC50 (Aminopeptidase N): 79.2 µM (active)

O=[N+]([O-])c1ccc(N2CCCCC2)nc1
AC50 [14]: 3.98 µM (active)

O=[N+]([O-])c1ccc(NN=Cc2ccccc2O)nc1
IC50 (Beta-galactosidase): 46 µM (inactive)

Cc1nnn(-c2nonc2N)c1C(=O)NNC(=O)c1ccc(Cl)c(Cl)c1
IC50 (cells [4]): > 29.9 µM (inactive)
EC50 [5]: 5.05 µM (active)
IC50 [6]: > 29.9 µM (inactive)
EC50 (cells [7]): > 29.9 µM (inactive)

O=C(N[C@H](C(=O)N1CCC[C@H]1C(=O)NCCc1ccccc1Cl)c1ccccc1)c1ccccc1
IC50 (cells [4]): > 29.9 µM (inactive)
EC50 [5]: 3.78 µM (active)
IC50 [6]: 5.99 µM (active)
EC50 (cells [7]): > 29.9 µM (inactive)
